Experiments:
MCF-7 cells = experiment: MTT in vitro cytotoxicity assay, MCF-7; type: cell-based; settings: Homo sapiens, MCF7, 48 h incubation, mean ± SEM
Experimental: (§1) The promyelocytic leukemia HL-60 and breast cancer adenocarcinoma MCF-7 cell lines were purchased from the European Collection of Cell Cultures (ECACC). Leukemia cells were cultured in RPMI 1640 plus GlutaMax I medium (Gibco/Life Technologies, Carlsbad, CA, USA). MCF-7 cells were maintained in Minimum Essential Medium Eagle (Sigma Aldrich, St. Louis, MO, USA) and supplemented with 2 mM glutamine and men non-essential amino acid solution (Sigma Aldrich, St. Louis, MO, USA). Both media were supplemented with 10% heat-inactivated fetal bovine serum (Biological Industries, Beit-Haemek, Israel) and antibiotics (100 U/mL penicillin and 100 μg/mL streptomycin) (Sigma-Aldrich, St. Louis, MO, USA). Human umbilical vein endothelial cells (HUVECs) were purchased from the American Type Culture Collection (ATCC). Cells were cultured using EGM-2 Endothelial Medium BulletKit purchased from Lonza (Lonza, Walkersville, MD, USA). Cells were maintained at 37 °C in 5% CO2 atmosphere and grown until 80% confluent.
(§2) The tested compounds were dissolved in sterile dimethyl sulfoxide (DMSO) and further diluted with culture medium. The final concentration of DMSO in cell cultures was less than 0.1% v/v. Controls without and with 0.1% DMSO were performed in each experiment. At the used concentration, DMSO had no effect on the observed parameters.
(§3) The MTT (3-(4,5-dimethylthiazol-2-yl)-2,5-diphenyltetrazolium bromide) assay, which measures the activity of cellular dehydrogenases, was performed according to the Mosmann method. Exponentially growing cells were seeded into 24-well plates at a density of 8 × 10^4 cells/mL and left to grow for 24 h. After 24 h or 48 h of incubation with various concentrations of the tested compounds (dissolved in DMSO and diluted with complete culture medium), cells were incubated with 0.1 mL of MTT solution (5 mg/mL in phosphate buffered saline) for 1.5 h. The metabolically active cells reduced MTT to blue formazan crystals. The plates were centrifuged, and the supernatant was discarded. DMSO (1 mL) was added to each well to dissolve the crystals, whose absorbance was measured at 560 nm using FlexStation 3 Multi-Mode Microplate Reader (Molecular Devices, LLC, San Jose, CA, USA). The untreated cells were used as control. The IC50 values were calculated from the concentration–response curves. The data were expressed as mean ± SEM of three independent experiments.

HL-60 cells [1] = experiment: Apoptosis by cleaved PARP (Asp214) staining, flow cytometry; type: cell-based; settings: 1.8 µM, 24 h, Figure 3b
Experimental: To evaluate the anticancer potential of 5a, the ability of this compound to inhibit cell proliferation, induce apoptotic cell death, and generate DNA damage was examined by flow cytometry using the ‘Apoptosis, DNA Damage, and Cell Proliferation Kit’ (BD Bioscience). After 24 h treatment with 5a in increasing concentrations, HL-60 cells were exposed to bromodeoxyuridine (BrdU) for additional 8 h. Then, the cells were simultaneously stained with fluorochrome-labeled anti-BrdU, anti-cleaved PARP (Asp214) and anti-H2AX (pS139).
To check whether the cytotoxic effect of 5a was associated with the induction of apoptosis, the pro-apoptotic activity of this compound was investigated. Apoptosis regulation is triggered by the activation of caspases. Caspase-3, an effector caspase, cleaves a number of vital proteins, leading to cell death. The activity of caspase-3 was assessed by flow cytometry using fluorochrome-labeled antibodies recognizing 89 kDa-cleaved PARP fragments released from PARP by caspase-3 in the executive stage of apoptosis.
Cell proliferation, DNA damage, and apoptotic cell death were determined using Apoptosis, DNA Damage, and Cell Proliferation Kit (BD Bioscience, San Jose, CA, USA), according to the manufacturer protocol. Briefly, HL-60 cells were seeded in 6-well plates (4.0 × 10^5 cells/mL) in 2 mL of growth medium and treated with 5a for 24 h. Afterwards, the bromodeoxyuridine (BrdU, 10 µM) was added and the cells were incubated for additional 8 h. Next, the cells were collected by centrifugation (300× g, 5 min), counted, fixed, and permeabilized according to the manufacturer’s instructions. The cells were incubated with DNase (300 µg/mL in PBS) for 1 h at 37 °C and then simultaneously stained with fluorochrome-labeled anti-BrdU, H2AX (pS139), and cleaved PARP (Asp214) antibodies, for 20 min at room temperature. After washing, DNA staining with DAPI (1 µg/mL of the staining buffer) was performed, and the cells were analyzed by flow cytometry using CytoFLEX (Beckman Coulter, Inc., Brea, CA, USA).

HUVEC cells = experiment: MTT in vitro cytotoxicity assay, HUVEC (normal cells); type: cell-based, human; settings: Homo sapiens, HUVEC, 48 h incubation, mean ± SEM
Experimental: as §1, §2, §3

HL-60 cells [2] = experiment: Apoptosis by FITC-Annexin V and PI double-staining, flow cytometry; type: cell-based; settings: 1.8 µM, 24 h
Experimental: Pro-apoptotic activity of 5a was also confirmed using FITC-Annexin V and PI double-staining, based on the loss of plasma membrane asymmetry (phosphatidylserine externalization), which is a marker of the earlier stages of apoptosis.
Apoptotic cell death was determined using FITC-Annexin V Apoptosis Detection Kit I (BD Bioscience, San Jose, CA, USA). Briefly, HL-60 cells were seeded in the 6-well plates (4.0 × 10^5 cells/well) in 2 mL of the culture medium and treated with […] for 24 h. Afterwards, the cells were collected by centrifugation (300× g, 5 min), washed with PBS, re-suspended in binding buffer and stained with FITC-conjugated annexin V and propidium iodide (PI) according to the manufacturer guidelines (15 min, at room temperature). The samples were analyzed by flow cytometry using CytoFLEX (Beckman Coulter, Inc., Brea, CA, USA). Data analysis was performed using Kaluza Analysis Software v2 (Beckman Coulter, Inc., Brea, CA, USA).

C=C1C(=O)c2ccccc2N(S(=O)(=O)c2ccccc2)C1CC (stereo not drawn) [Compound 5a, 2-Ethyl-3-methylidene-1-(phenylsulfonyl)-2,3-dihydroquinolin-4(1H)-one]
IC50 (MCF-7 cells): 2740 ± 70 nM
Q3: H2AX (pS139) and cleaved PARP negative cells (representative plot) (HL-60 cells [1]): 66.8%
Q4: cleaved PARP positive, H2AX (pS139) negative cells (representative plot) (HL-60 cells [1]): 15.0%
IC50 (HUVEC cells): 1870 ± 20 nM
early apoptotic cell fraction (Annexin V-positive) (HL-60 cells [2]): up to 13.9%
late apoptotic cell fraction (Annexin V- and PI-positive) (HL-60 cells [2]): ≤ 13.7%

— article PMC9181899, “Synthesis and Anticancer Properties of New 3-Methylidene-1-sulfonyl-2,3-dihydroquinolin-4(1H)-ones” (Molecules, 2022)
